Assay results taken from patent US3966718A, “7-β-Acylamino-ceph-3-ems and salts and esters therefor” (Beecham Group Limited, priority 1973, dated 1976).
Converted amounts (≈) assume the structure as drawn. Counter-ions that a name gives are not always drawn. Like-named read-outs stand apart in the source and are kept apart here.

Experiments:
Format in all cases: cell-based
[1] = test system: B. subtilis; experiment: MIC on (nutrient) agar; conditions: Bacillus subtilis, read-out: minimum inhibitory concentration (MIC)
[2] = test system: Staph. aureus Oxford; experiment: MIC on (nutrient) agar; conditions: Staphylococcus aureus, read-out: minimum inhibitory concentration (MIC)
[3] = test system: Staph. aureus Russell; experiment: MIC on (nutrient) agar; conditions: Staphylococcus aureus, read-out: minimum inhibitory concentration (MIC)
[4] = test system: β-Haemolytic Strep. CN10; experiment: MIC on (nutrient) agar; conditions: read-out: minimum inhibitory concentration (MIC)
[5] = test system: E. coli JT 1; experiment: MIC on nutrient agar; conditions: Escherichia coli
[6] = test system: Salmonella typhi; experiment: MIC on nutrient agar; conditions: Salmonella enterica, read-out: minimum inhibitory concentration (MIC)
[7] = test system: Shigella sonnei; experiment: MIC on nutrient agar; conditions: read-out: minimum inhibitory concentration (MIC)
[8] = test system: Klebsiella aerogenes A; experiment: MIC on nutrient agar; conditions: read-out: minimum inhibitory concentration (MIC)
[9] = test system: Proteus mirabilis C977; experiment: MIC on nutrient agar; conditions: Proteus mirabilis C977, nutrient agar; read-out: minimum inhibitory concentration (MIC)
[10] = test system: Strep. pneumoniae CN33; experiment: MIC on (nutrient) agar; conditions: Streptococcus pneumoniae, read-out: minimum inhibitory concentration (MIC)
[11] = test system: E. coli NCTC 10418; experiment: MIC on nutrient agar; conditions: Escherichia coli, NCTC10418; E. coli NCTC 10418, nutrient agar; read-out: minimum inhibitory concentration (MIC)
[12] = JT1, E. coli JT 1, nutrient agar, read-out: minimum inhibitory concentration (MIC)
[13] = Klebsiella aerogenes A, nutrient agar

SMILES | MIC ([1]; B. subtilis, agar) [µg/mL] | MIC [2] [µg/mL] | MIC ([3]; Staph. aureus Russell, agar) [µg/mL] | MIC ([4]; β-Haemolytic Strep. CN10, agar) [µg/mL] | MIC ([5]; JT1, read-out: minimum inhibitory concentration (MIC)) [µg/mL] | MIC [6] [µg/mL] | MIC [7] [µg/mL] | MIC ([8]; Klebsiella aerogenes) [µg/mL] | MIC [9] [µg/mL] | MIC [5, 12] [µg/mL] | MIC [8, 13] [µg/mL] | MIC [10] [µg/mL] | MIC [11] [µg/mL] | MIC [1] [µg/mL] | MIC [4] [µg/mL] | MIC [3] [µg/mL]
NC(CC(=O)N[C@@H]1C(=O)N2C(C(=O)O)=C(Cc3cccnc3)CS[C@H]12)C1CC=CCC1 (mixture of isomers) [Example 18, 7β-(DL-3-[cyclohex-3-ene]-3-aminopropionamido)-3(3-pyridylmethyl)-3-cephem-4-carboxylic acid di-trifluoroacetic acid salt] | 1.25 | 0.5 | 1.25 | 0.5 | 125 | 125 | 125 | 125 | 250 |  |  |  |  |  |  | 
NC(C(=O)N[C@@H]1C(=O)N2C(C(=O)O)=C(Cc3cccnc3)CS[C@H]12)C1CC1 (mixture of isomers) [Example 19, 7β-(DL-α-aminocyclopropylacetamido)-3(3-pyridylmethyl)-3-cephem-4-carboxylic acid di-trifluoroacetic acid salt] | 12.5 | 5 | 12.5 | 2.5 |  | 250 | 250 |  | 500 | 500 | 250 |  |  |  |  | 
O=C(Cc1cccs1)N[C@@H]1C(=O)N2C(C(=O)O)=C(Cc3cccnc3)CS[C@H]12 [Example 1, 3-(3-pyridylmethyl)-7β-(2-thienylacetamido)-3-cephem-4-carboxylic acid trifluoroacetate salt] | 0.25 | 0.05 | 10 | 0.1 |  |  |  |  |  |  |  | 0.1 |  |  |  | 
O=C(O)C1=C(Cc2cccnc2)CS[C@@H]2[C@H](NC(=O)[C@H](O)c3ccccc3)C(=O)N12 [Example 3, 7β(D-α-hydroxyphenylacetamido)-3(3-pyridylmethyl)-3-cephem-4-carboxylic acid trifluoroacetate salt] | 0.12 | 0.25 | 12.5 | 0.25 |  | 2.5 | 2.5 |  | 5 |  | 2.5 | 0.5 | 2.5 |  |  | 
N[C@@H](C(=O)N[C@@H]1C(=O)N2C(C(=O)O)=C(Cc3cccnc3)CS[C@H]12)c1ccccc1 [Example 4, 7β(D-α-aminophenylacetamido)-3(3-pyridylmethyl)-3-cephem-4-carboxylic acid di-trifluoroacetate salt] | 0.25 | 0.25 | 2.5 | 0.25 |  | 1.25 | 2.5 |  | 5 |  | 2.5 | 0.5 | 2.5 |  |  | 
C[n+]1cccc(CC2=C(C(=O)O)N3C(=O)[C@@H](NC(=O)[C@H](O)c4ccccc4)[C@H]3SC2)c1 [Example 5, 7β(D-α-hydroxyphenylacetamide)-3(3-pyridylmethyl)-3-cephem-4-carboxylic acid metho-trifluoroacetate] | 0.25 | 0.12 | 5 | 0.02 |  | 50 | 50 |  | 125 |  | 50 | 0.12 | 50 |  |  | 
O=C(O)C(F)(F)F.O=C(O)C1=C(Cc2cccnc2)CS[C@@H]2[C@H](NC(=O)C(C(=O)Oc3ccccc3)c3ccccc3)C(=O)N12 (stereo partly drawn) [Example 6, 7β(α-phenoxycarbonylphenylacetamido)-3(3-pyridylmethyl)-3-cephem-4-carboxylic acid trifluoroacetate] |  | 5 | 25 |  |  | 125 | 12.5 |  | 25 |  |  |  | 50 | 12.5 | 12.5 | 
N[C@@H](C(=O)N[C@@H]1C(=O)N2C(C(=O)O)=C(Cc3ccccn3)CS[C@H]12)c1ccccc1 [Example 7, 7β(Dα-aminophenylacetamido)-3(2-pyridylmethyl)-3-cephem-4-carboxylic acid di-trifluoroacetate] | 1.25 (≈ 2.94 µM) | 1.25 (≈ 2.94 µM) |  | 1.25 (≈ 2.94 µM) |  | 12.5 (≈ 29.4 µM) | 25 (≈ 58.9 µM) |  | 125 (≈ 294 µM) |  |  |  | 50 (≈ 118 µM) |  |  | 12.5 (≈ 29.4 µM)
O=C(O)C1=C(Cc2cccnc2)CS[C@@H]2[C@H](NC(=O)[C@H](NC(=O)N3CCNC3=O)c3ccccc3)C(=O)N12 [Example 8, 7β-[D-2-(1-imidazolidonecarbonylamino)phenylacetamido]-3(3-pyridylmethyl)-3-cephem-4-carboxylic acid trifluoroacetic acid salt] | 1.25 | 0.25 | 12.5 | 0.12 |  | 25 | 25 |  | 50 |  | 12.5 | 0.25 | 25 |  |  | 
O=C(COc1ccccc1)N[C@@H]1C(=O)N2C(C(=O)O)=C(Cc3cccnc3)CS[C@H]12 [Example 9, 7β-phenoxyacetamido-3(3-pyridylmethyl)-3-cephem-4-carboxylic acid trifluoroacetic acid salt] | 0.25 | 0.02 | 0.12 | 0.12 |  | 500 | 500 |  | 125 |  | 500 | 0.12 | 500 |  |  | 
CCSCC(=O)N[C@@H]1C(=O)N2C(C(=O)O)=C(Cc3cccnc3)CS[C@H]12 [Example 10, 7β-ethylthioacetamido-3(3-pyridylmethyl)-3-cephem-4-carboxylic acid trifluoroacetic acid salt] | 0.5 | 0.05 | 1.25 | 0.12 |  | 50 | 50 |  | 25 |  | 50 | 0.25 | 50 |  |  | 
N=C(N)N[C@@H](C(=O)N[C@@H]1C(=O)N2C(C(=O)O)=C(Cc3cccnc3)CS[C@H]12)c1ccccc1 [Example 11, 7β(Dα-guanidinophenylacetamido)-3(3-pyridylmethyl)-3-cephem-4-carboxylic acid di-trifluoroacetic acid salt] | 2.5 | 0.5 | 2.5 | 0.1 |  | > 100 | > 100 |  | > 100 |  | > 100 | 0.1 | > 100 |  |  | 
C[n+]1cccc(CC2=C(C(=O)O)N3C(=O)[C@@H](NC(=O)[C@H](N)c4ccccc4)[C@H]3SC2)c1 [Example 12, 7β(Dα-aminophenylacetamido)-3(3-pyridylmethyl)-3-cephem-4-carboxylic acid metho-trifluoroacetate trifluoroacetic acid salt] | 0.5 | 0.25 | 12.5 | 0.05 |  | 50 | 50 |  | 125 |  | 50 | 0.25 | 50 |  |  | 
N[C@@H](C(=O)N[C@@H]1C(=O)N2C(C(=O)O)=C(Cc3cccnc3)CS[C@H]12)c1ccc(O)cc1 [Example 13, 7-(2-Amino-2-p-hydroxyphenylacetamido)-4-carboxy-3-(3-pyridylmethyl) ceph-3-em bis-trifluoroacetic acid salt] | 0.25 | 0.25 | 2.5 | 0.12 |  | 1.25 | 5 | 1.25 | 5 |  |  | 0.12 | 5 |  |  | 
O=C(O)CSCC(=O)N[C@@H]1C(=O)N2C(C(=O)O)=C(Cc3cccnc3)CS[C@H]12 [Example 14, 4-Carboxy-7-carboxymethylthioacetamido-3-(3-pyridylmethyl)ceph-3-em trifluoroacetic acid salt] | 25 | 1.25 | 12.5 | 5 |  | 50 | 50 |  | 50 |  | 25 | 12.5 | 50 |  |  | 
NC(C(=O)N[C@@H]1C(=O)N2C(C(=O)O)=C(Cc3cccnc3)CS[C@H]12)c1cccs1 (stereo partly drawn) [Example 15, 7-β-[(dl)-α-Amino-2-thienylacetamido]-3-(3-pyridylmethyl)-3-cephem-4-carboxylic acid Di-trifluoroacetic acid salt] | 1.25 | 0.5 | 5 | 0.5 |  | 2.5 | 5 |  | 12.5 | 12.5 | 5 |  |  |  |  | 
O=C(CSc1ccncc1)N[C@@H]1C(=O)N2C(C(=O)O)=C(Cc3cccnc3)CS[C@H]12 [Example 16, 7β(4-pyridylthioacetamido)-3(3-pyridylmethyl)-3-cephem-4-carboxylic acid di-trifluoroacetic acid salt] | < 0.02 | < 0.02 | 1 | < 0.02 |  | 10 | 25 |  | 100 |  | 5 | < 0.02 | 25 |  |  | 
